Test results: patent US20140243286A1, “BROMODOMAIN LIGANDS CAPABLE OF DIMERIZING IN AN AQUEOUS SOLUTION, AND METHODS OF USING SAME” (Coferon, Inc., priority 2011, published 2014)
Where two headings read alike, the source gives them in different places.

Tests used:
[1] = molecular target: BRD2 (Homo sapiens, UniProt P25440); assay: Fluorescence anisotropy (FA) binding assay, BRD2
Protocol: (§1) Fluorescence Anisotropy (FA) Binding Assays.
(§2) FA assays were performed as described in Chung et al., J. Med Chem., 2011 54(11): 3827-38 except that protein concentrations were 125 nM and plates were read on a Spectramax M5 plate reader.

[2] = molecular target: BRD3 (Homo sapiens, UniProt Q15059); assay: Fluorescence anisotropy (FA) binding assay, BRD3
Protocol: as §1, §2

[3] = molecular target: BRD4 (Homo sapiens, UniProt O60885); assay: Fluorescence anisotropy (FA) binding assay, BRD4
Protocol: as §1, §2

[4] = system: bromodomain; assay: TR-FRET assay; assay type: binding; conditions: BRD-S monomers; based on monomer concentration; read-out: IC50 range (based on monomer concentration), Group (FRET assay)
Protocol: TR-FRET assays were performed as described in Chung et al, J. Med Chem., 2011 54(11): 3827-38 except that FRET was measured on a Spectramax M5 plate reader.

[5] = BRD2, protein 125 nM, read-out: IC50 range (FA assay) BRD2, BRD-N monomers
[6] = BRD3, protein 125 nM, read-out: IC50 range (FA assay) BRD3, BRD-N monomers
[7] = BRD4, protein 125 nM, read-out: IC50 range (FA assay) BRD4, BRD-N monomers

Sequence of BRD2 (P25440 whole entry): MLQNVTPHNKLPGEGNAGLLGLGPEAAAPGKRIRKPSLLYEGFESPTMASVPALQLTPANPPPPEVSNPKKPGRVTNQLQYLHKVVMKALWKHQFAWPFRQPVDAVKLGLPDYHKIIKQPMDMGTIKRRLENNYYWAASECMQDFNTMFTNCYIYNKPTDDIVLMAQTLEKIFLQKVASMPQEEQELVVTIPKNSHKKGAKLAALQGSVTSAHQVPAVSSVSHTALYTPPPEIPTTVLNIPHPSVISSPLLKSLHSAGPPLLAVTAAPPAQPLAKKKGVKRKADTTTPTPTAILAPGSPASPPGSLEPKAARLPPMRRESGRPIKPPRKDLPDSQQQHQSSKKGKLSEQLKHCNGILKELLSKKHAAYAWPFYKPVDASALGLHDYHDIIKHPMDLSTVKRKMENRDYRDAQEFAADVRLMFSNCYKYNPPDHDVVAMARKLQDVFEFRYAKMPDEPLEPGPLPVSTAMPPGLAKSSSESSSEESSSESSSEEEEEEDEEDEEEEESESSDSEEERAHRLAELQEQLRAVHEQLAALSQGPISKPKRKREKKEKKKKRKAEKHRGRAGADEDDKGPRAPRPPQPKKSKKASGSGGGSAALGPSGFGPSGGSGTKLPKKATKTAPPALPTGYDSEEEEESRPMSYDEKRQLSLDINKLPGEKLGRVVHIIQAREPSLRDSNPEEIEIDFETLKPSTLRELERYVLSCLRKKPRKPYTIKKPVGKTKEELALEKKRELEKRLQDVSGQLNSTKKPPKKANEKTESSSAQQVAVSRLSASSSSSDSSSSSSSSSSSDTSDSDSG
Sequence of BRD3 (Q15059 whole entry): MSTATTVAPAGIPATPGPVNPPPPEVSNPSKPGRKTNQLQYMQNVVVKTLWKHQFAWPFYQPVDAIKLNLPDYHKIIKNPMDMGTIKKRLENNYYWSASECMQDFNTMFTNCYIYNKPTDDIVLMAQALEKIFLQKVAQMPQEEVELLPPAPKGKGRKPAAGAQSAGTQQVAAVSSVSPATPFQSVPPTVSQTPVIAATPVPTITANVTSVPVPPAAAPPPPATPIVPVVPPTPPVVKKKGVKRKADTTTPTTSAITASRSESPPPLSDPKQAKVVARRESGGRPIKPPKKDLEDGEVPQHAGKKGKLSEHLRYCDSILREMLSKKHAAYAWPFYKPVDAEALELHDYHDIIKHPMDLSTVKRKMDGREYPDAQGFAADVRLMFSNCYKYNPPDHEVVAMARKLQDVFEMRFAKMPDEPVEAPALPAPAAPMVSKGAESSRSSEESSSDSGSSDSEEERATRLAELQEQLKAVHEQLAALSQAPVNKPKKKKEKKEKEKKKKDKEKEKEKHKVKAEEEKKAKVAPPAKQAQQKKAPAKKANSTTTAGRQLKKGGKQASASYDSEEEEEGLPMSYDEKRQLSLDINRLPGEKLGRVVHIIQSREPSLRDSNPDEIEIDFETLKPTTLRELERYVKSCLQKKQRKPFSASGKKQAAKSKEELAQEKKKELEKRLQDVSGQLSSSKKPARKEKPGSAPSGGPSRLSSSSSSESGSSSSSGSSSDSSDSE

| SMILES | IC50 [1, 5] [nM] | IC50 [2, 6] [nM] | IC50 [3, 7] [nM] | other results |
| --- | --- | --- | --- | --- |
| CCNC(=O)C[C@@H]1N=C(c2ccc(Cl)cc2)c2cc(O)ccc2-n2c(C)nnc21 | – | – | – | melting point: 180 to 182 °C |
| CCNC(=O)C[C@@H]1N=C(c2ccc(Cl)cc2)c2cc(OCC(=O)Nc3ccc(O)c(O)c3)ccc2-n2c(C)nnc21 [BRD-N-16, (S)-2-((6-(4-chlorophenyl)-4-(2-(ethylamino)-2-oxoethyl)-1-methyl-4H-benzo[f][1,2,4]triazolo[4,3-a][1,4]diazepin-8-yl)oxy)-N-(3,4-dihydroxyphenyl)acetamide] | 50 to 1000 | 50 to 1000 | 50 to 1000 | – |
| CCNC(=O)C[C@@H]1N=C(c2ccc(Cl)cc2)c2cc(OCC(=O)Nc3cccc(O)c3O)ccc2-n2c(C)nnc21 [BRD-N-17, (S)-2-((6-(4-chlorophenyl)-4-(2-(ethylamino)-2-oxoethyl)-1-methyl-4H-benzo[f][1,2,4]triazolo[4,3-a][1,4]diazepin-8-yl)oxy)-N-(2,3-dihydroxyphenyl)acetamide] | 50 to 1000 | 1000 to 30000 | 50 to 1000 | – |
| CCNC(=O)C[C@@H]1N=C(c2ccc(Cl)cc2)c2cc(OCCCC(=O)Nc3ccc(O)c(O)c3)ccc2-n2c(C)nnc21 [BRD-N-20, (S)-4-((6-(4-chlorophenyl)-4-(2-(ethylamino)-2-oxoethyl)-1-methyl-4H-benzo[f][1,2,4]triazolo[4,3-a][1,4]diazepin-8-yl)oxy)-N-(3,4-dihydroxyphenyl)butanamide] | 50 to 1000 | 50 to 1000 | 50 to 1000 | – |
| CCNC(=O)C[C@@H]1N=C(c2ccc(Cl)cc2)c2cc(OCCCC(=O)Nc3cccc(O)c3O)ccc2-n2c(C)nnc21 [BRD-N-21, (S)-4-((6-(4-chlorophenyl)-4-(2-(ethylamino)-2-oxoethyl)-1-methyl-4H-benzo[f][1,2,4]triazolo[4,3-a][1,4]diazepin-8-yl)oxy)-N-(2,3-dihydroxyphenyl)butanamide] | 1000 to 30000 | 50 to 1000 | 50 to 1000 | – |
| CCNC(=O)C[C@@H]1N=C(c2ccc(Cl)cc2)c2cc(OCCCCC(=O)Nc3ccc(O)c(O)c3)ccc2-n2c(C)nnc21 [BRD-N-22, (S)-5-((6-(4-chlorophenyl)-4-(2-(ethylamino)-2-oxoethyl)-1-methyl-4H-benzo[f][1,2,4]triazolo[4,3-a][1,4]diazepin-8-yl)oxy)-N-(3,4-dihydroxyphenyl)pentanamide] | 50 to 1000 | 50 to 1000 | 50 to 1000 | – |
| CCNC(=O)C[C@@H]1N=C(c2ccc(Cl)cc2)c2cc(OCCCCC(=O)Nc3cccc(O)c3O)ccc2-n2c(C)nnc21 [BRD-N-23, (S)-5-((6-(4-chlorophenyl)-4-(2-(ethylamino)-2-oxoethyl)-1-methyl-4H-benzo[f][1,2,4]triazolo[4,3-a][1,4]diazepin-8-yl)oxy)-N-(2,3-dihydroxyphenyl)pentanamide] | – | – | – | IC50 [1]: 50 to 1000 nM; IC50 [2]: 50 to 1000 nM; IC50 [3]: 50 to 1000 nM |
| CCNC(=O)C[C@@H]1N=C(c2ccc(Cl)cc2)c2cc(OCCNC(=O)c3ccc(O)c(O)c3)ccc2-n2c(C)nnc21 [BRD-N-24] | 50 to 1000 | 50 to 1000 | 1000 to 30000 | – |
| CCNC(=O)C[C@@H]1N=C(c2ccc(Cl)cc2)c2cc(OCCNC(=O)c3cccc(O)c3O)ccc2-n2c(C)nnc21 [BRD-N-25, (S)—N-(2-((6-(4-chlorophenyl)-4-(2-(ethylamino)-2-oxoethyl)-1-methyl-4H-benzo[f][1,2,4]triazolo[4,3-a][1,4]diazepin-8-yl)oxy)ethyl)-2,3-dihydroxybenzamide] | 1000 to 30000 | 50 to 1000 | 50 to 1000 | – |
| CCNC(=O)C[C@@H]1N=C(c2ccc(Cl)cc2)c2cc(OCCCNC(=O)c3ccc(O)c(O)c3)ccc2-n2c(C)nnc21 [BRD-N-26, (S)—N-(3-((6-(4-chlorophenyl)-4-(2-(ethylamino)-2-oxoethyl)-1-methyl-4H-benzo[f][1,2,4]triazolo[4,3-a][1,4]diazepin-8-yl)oxy)propyl)-3,4-dihydroxybenzaamide] | 1000 to 30000 | 1000 to 30000 | 1000 to 30000 | – |
| CCNC(=O)C[C@@H]1N=C(c2ccc(Cl)cc2)c2cc(OCCCNC(=O)c3cccc(O)c3O)ccc2-n2c(C)nnc21 [BRD-N-27, (S)—N-(3-((6-(4-chlorophenyl)-4-(2-(ethylamino)-2-oxoethyl)-1-methyl-4H-benzo[f][1,2,4]triazolo[4,3-a][1,4]diazepin-8-yl)oxy)propyl)-2,3-dihydroxybenzamide] | 1000 to 30000 | 50 to 1000 | 50 to 1000 | – |
| CCNC(=O)C[C@@H]1N=C(c2ccc(Cl)cc2)c2cc(OCCCCNC(=O)c3ccc(O)c(O)c3)ccc2-n2c(C)nnc21 [BRD-N-28, (S)—N-(4-((6-(4-chlorophenyl)-4-(2-(ethylamino)-2-oxoethyl)-1-methyl-4H-benzo[f][1,2,4]triazolo[4,3-a][1,4]diazepin-8-yl)oxy)butyl)-3,4-dihydroxybenzamide] | 1000 to 30000 | 50 to 1000 | 1000 to 30000 | – |
| CCNC(=O)C[C@@H]1N=C(c2ccc(Cl)cc2)c2cc(OCCCCNC(=O)c3cccc(O)c3O)ccc2-n2c(C)nnc21 [BRD-N-29, (S)—N-(4-((6-(4-chlorophenyl)-4-(2-(ethylamino)-2-oxoethyl)-1-methyl-4H-benzo[f][1,2,4]triazolo[4,3-a][1,4]diazepin-8-yl)oxy)butyl)-2,3-dihydroxybenzamide] | 50 to 1000 | 1000 to 30000 | 1000 to 30000 | – |
| COc1ccc2c(c1)C(c1ccc(Cl)cc1)=N[C@@H](CC(=O)NCCNC(=O)Cc1ccc(O)c(O)c1)c1nnc(C)n1-2 [BRD-N-30, 2-((4S)-6-(4-chlorophenyl)-8-methoxy-1-methyl-4H-benzo[f][1,2,4]triazolo[4,3-a][1,4]diazepin-4-yl)-N-(2-(2-(3,4-dihydroxyphenyl)acetamido)ethyl)acetamide] | 50 to 1000 | 50 to 1000 | 50 to 1000 | – |
| COc1ccc2c(c1)C(c1ccc(Cl)cc1)=N[C@@H](CC(=O)NCCOc1cccc([Si](C)(C)O)c1)c1nnc(C)n1-2 [BRD-S-10, (S)-2-(6-(4-chlorophenyl)-8-methoxy-1-methyl-4H-benzo[f][1,2,4]triazolo[4,3-a][1,4]diazepin-4-yl)-N-(2-(3-(hydroxydimethylsilyl)phenoxy)ethyl)acetamide] | – | – | – | IC50 [4]: 100 to 300 nM |
